Experimental data taken from patent US20060110456A1, “Method for biocidal and/or biostatic treatment and compositions therefor” (NATIONAL UNIVERSITY OF SINGAPORE, priority 2004, published 2006).
Entries after “also recorded” stand apart in the source; their conditions may differ. Structures can show the parent of a compound that is named as a salt.

Columns and labels:
[1] = test system: biofilm bacteria (strains 4, 9, 14, 20, 27, 28); assay: Effect of pharmaceuticals on adhesion of bacteria to plastic / biofilm formation on NTC and TC plates; format: cell-based, marine bacteria isolated from Singapore fouling communities; conditions: for Effect on formation of bacterial biofilms on NTC and TC plates: 25 ug ml−1, NTC = untreated polystyrene, TC = tissue-culture treated, strains 4, 9, 14, 20, 27, 28, hydrochloride; for Prevention of formation of biofilm: crude rank, best (1) to worst (8)
Protocol: Commercial forms of pharmaceuticals were used as previously described. […] These samples were sonicated for at least 1 min and these fine suspensions were used as initial stock solutions.
For studies of bacterial adhesion, the pharmaceuticals were first sterilized by soaking in absolute alcohol (Merck) for half an hour. Ethanol was removed by air-drying with air passed through 0.25 μm pore size syringe filter (Sartorius, Germany). Stock solutions were concentrations of 100 μg ml−1 in SDI.
The effect of pharmaceuticals on bacterial adhesion was analyzed using a modified microplate method adapted from Shea and Williamson (1990). This method employs a combination of staining attached bacteria with crystal violet, releasing the stain with sodium desoxycholate, and measuring the resulting absorbance of the crystal violet.
Detailed results for six selected strains are presented here: strains 4, 9, 14, 20, 27, 28. The bacterial strains were grown in Marine Broth (Pronadisa, Spain) overnight, in the dark, at 28° C. on a rotary shaker (150 rpm) in 5 ml centrifuge tubes (Falcon). Cells were harvested by centrifugation (1500×g, 10 min) and resuspended in sterile seawater (SSW). SSW was prepared by filtering seawater through a 0.2 μm pore size filter (Sartorius) followed by autoclaving. The cells were centrifuged and resuspended once more in SSW. The concentration of resuspended cells was adjusted to A600=1.0 using a spectrophotometer (Beckman DU530, USA).
Flat bottom 96 well polystyrene (hydrophobic, Falcon 351172) (=NTC) and tissue-culture treated polystyrene (hydrophilic, Falcon 353072) (=TC) microplates were used in the analyses. Each test was performed in triplicate. Two sets of experiments were conducted. […] For the control and blank wells, 25 ul of SDI were added. For wells containing pharmaceuticals, 25 ul of the respective pharmaceutical at a concentration of 100 ug ml−1 were added. This was immediately followed by the addition of 75 ul of bacterial suspension. To blanks were added 75 ul of SSW.
The bacterial cells in suspension were allowed to attach for 2 h at 28° C. Unattached cells were removed by aspiration using a plate washer (Tecan, Austria) and wells were rinsed three times with 200 ul of SSW each time. The attached cells were stained with 200 ul of crystal violet solution (0.1% w/v in deionized water) in each well for 5 min. After removing the stain using the plate washer, the wells were rinsed twice with 300 ul of SDI each time. Sodium desoxycholate (200 ul) solution (2% w/v in deionized water) was added to each well to extract the crystal violet from the attached stained cells for 10 min. The absorbance of the crystal violet was read at 590 nm using a microplate reader (Sunrise, Tecan, Austria).
Results of the adhesion assay were obtained by the difference in absorbance readings between wells containing bacterial cells and the mean of absorbance of those containing the SSW only. The effect of the pharmaceuticals on bacterial adhesion was determined by the examining the differences in absorbance between the wells containing the pharmaceuticals+bacteria and the bacteria. The significance was compared using T-test.

Bugula neritina larvae = assay: Bioassay against bryozoan larvae; format: in vivo; conditions: crude rank, best (1) to worst (8)
Protocol: Bugula neritina (Phylum Bryozoa, Class Gymnolaemata, Order Cheilostomatida) is a cosmopolitan species of bryozoan, commonly found in most marine fouling communities. The larvae are brooded in ovicells found on the stem of the colonies. When released, the larva will settle quickly on most surfaces, within a few minutes. At 24° C., the settled larvae forms the one-cell ancestrula, and after 48 hours, the lophophore has developed and extended for feeding.
Adult colonies of Bugula neritina were collected from fouling communities growing on the submerged pontoons on a floating fish farm located off Changi, Singapore. Adult animals were maintained in the open-circulation aquarium at St John's island marine laboratory, Singapore. The adults were kept in total darkness for 24 hours. On exposure to light, larvae were released after half an hour. […] Because the larvae will settle quickly, larvae were pipetted directly into test wells in 1 ml of seawater using a graduated glass pipette.
4 replicates were done for each treatment. After 24 hours, larvae were scored as settled, swimming or dead/deformed. The assay plates were usually kept for another 24 hours and checked again, to ascertain that the settled larvae had developed into viable colonies with lophophores. Two trials were repeated for each compound.
Bioassays were carried out using the method described above, in July 2003 during the peak spawning season for Bugula.

[2] = test system: marine bacteria (26 strains); assay: Disk inhibition assay; format: cell-based, marine bacteria isolated from Singapore fouling communities
Procedure, shortened: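 Tablets or capsule powders suspended in sterile water at 2 mg ml^−1 and loaded onto disks; antibiotic discs (Amp, Ery, Str, Tet) served as comparison. Disks placed on swabbed lawns on Marine Agar, incubated overnight in the dark at 30° C. Zone of clearing diameter measured by calipers; three replicates on three occasions.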

[3] = crude rank, best (1) to worst (8)

CN1CCN(CCCN2c3ccccc3Sc3ccc(C(F)(F)F)cc32)CC1 [TFZ, Trifluoperazine hydrochloride]
Effect on formation of bacterial biofilms on NTC and TC plates [1]: reduced biofilm formation on NTC plates; also recorded: active against strain 4, 14, 27 on NTC but no reduction of biofilms was observed on the TC plates | Prevention of formation of biofilm [1]: 4 | Prevention of settlement of Bugula larvae (Bugula neritina larvae): 2 | Number of strains inhibited out of 26 strains ([2]; 25 μg per disc): 22 | Strains showing no inhibition (of 26) ([2]; 50 μg per disc): 2 | Antibiotic activity against marine bacteria ([2]; 25 or 50 μg per disc, in words): strongest activity | Antibiotic activity against marine bacteria [2, 3]: 3 | zone of inhibition at 25 µg/disc ([2]; strain 1 (Rhodovulum), 25 μg per disc): < 5 mm | zone of inhibition at 50 µg/disc ([2]; strain 1 (Rhodovulum), 50 μg per disc): < 5 mm | zone of inhibition at 25 µg/disc ([2]; strain 2 (Erythrobacter), 25 μg per disc): < 5 mm | zone of inhibition at 50 µg/disc ([2]; strain 2 (Erythrobacter), 50 μg per disc): 10 to 19 mm | zone of inhibition at 25 µg/disc ([2]; strain 3 (Erythrobacter), 25 μg per disc): 10 to 19 mm | zone of inhibition at 50 µg/disc ([2]; strain 3 (Erythrobacter), 50 μg per disc): 10 to 19 mm | zone of inhibition at 25 µg/disc ([2]; strain 4 (Bacillus), 25 μg per disc): 10 to 19 mm | zone of inhibition at 50 µg/disc ([2]; strain 4 (Bacillus), 50 μg per disc): 10 to 19 mm | zone of inhibition at 25 µg/disc ([2]; strain 6 (Vibrio), 25 μg per disc): 5 to 9 mm | zone of inhibition at 50 µg/disc ([2]; strain 6 (Vibrio), 50 μg per disc): 5 to 9 mm | zone of inhibition at 25 µg/disc ([2]; strain 7 (Vibrio), 25 μg per disc): < 5 mm | zone of inhibition at 50 µg/disc ([2]; strain 7 (Vibrio), 50 μg per disc): 5 to 9 mm | zone of inhibition at 25 µg/disc ([2]; strain 8 (Bacillus), 25 μg per disc): 5 to 9 mm | zone of inhibition at 50 µg/disc ([2]; strain 8 (Bacillus), 50 μg per disc): 10 to 19 mm | zone of inhibition at 25 µg/disc ([2]; strain 9 (Bacillus), 25 μg per disc): 10 to 19 mm | zone of inhibition at 50 µg/disc ([2]; strain 9 (Bacillus), 50 μg per disc): 10 to 19 mm | zone of inhibition at 25 µg/disc ([2]; strain 10 (Halobacillus), 25 μg per disc): 10 to 19 mm | zone of inhibition at 50 µg/disc ([2]; strain 10 (Halobacillus), 50 μg per disc): 10 to 19 mm | zone of inhibition at 25 µg/disc ([2]; strain 11 (Pseudomonas), 25 μg per disc): 10 to 19 mm | zone of inhibition at 50 µg/disc ([2]; strain 11 (Pseudomonas), 50 μg per disc): 10 to 19 mm | zone of inhibition at 25 µg/disc ([2]; strain 12 (Gordonia), 25 μg per disc): 10 to 19 mm | zone of inhibition at 50 µg/disc ([2]; strain 12 (Gordonia), 50 μg per disc): 10 to 19 mm | zone of inhibition at 25 µg/disc ([2]; strain 13 (Bacillus), 25 μg per disc): 10 to 19 mm | zone of inhibition at 50 µg/disc ([2]; strain 13 (Bacillus), 50 μg per disc): 10 to 19 mm | zone of inhibition at 25 µg/disc ([2]; strain 14 (Vibrio), 25 μg per disc): < 5 mm | zone of inhibition at 50 µg/disc ([2]; strain 14 (Vibrio), 50 μg per disc): < 5 mm | zone of inhibition at 25 µg/disc ([2]; strain 16 (Pseudoalteromonas), 25 μg per disc): 5 to 9 mm | zone of inhibition at 50 µg/disc ([2]; strain 16 (Pseudoalteromonas), 50 μg per disc): 10 to 19 mm | zone of inhibition at 25 µg/disc ([2]; strain 17 (Gordonia), 25 μg per disc): 5 to 9 mm | zone of inhibition at 50 µg/disc ([2]; strain 17 (Gordonia), 50 μg per disc): 10 to 19 mm | zone of inhibition at 25 µg/disc ([2]; strain 18 (Microbacterium), 25 μg per disc): 10 to 19 mm | zone of inhibition at 50 µg/disc ([2]; strain 18 (Microbacterium), 50 μg per disc): 10 to 19 mm | zone of inhibition at 25 µg/disc ([2]; strain 19 (Erythrobacter), 25 μg per disc): 10 to 19 mm | zone of inhibition at 50 µg/disc ([2]; strain 19 (Erythrobacter), 50 μg per disc): 10 to 19 mm | zone of inhibition at 25 µg/disc ([2]; strain 20, 25 μg per disc): 10 to 19 mm | zone of inhibition at 50 µg/disc ([2]; strain 20, 50 μg per disc): 20 to 29 mm | zone of inhibition at 25 µg/disc ([2]; strain 21, 25 μg per disc): 5 to 9 mm | zone of inhibition at 50 µg/disc ([2]; strain 21, 50 μg per disc): 5 to 9 mm | zone of inhibition at 25 µg/disc ([2]; strain 22, 25 μg per disc): 10 to 19 mm | zone of inhibition at 50 µg/disc ([2]; strain 22, 50 μg per disc): 20 to 29 mm | zone of inhibition at 25 µg/disc ([2]; strain 24, 25 μg per disc): 10 to 19 mm | zone of inhibition at 50 µg/disc ([2]; strain 24, 50 μg per disc): 10 to 19 mm | zone of inhibition at 25 µg/disc ([2]; strain 26, 25 μg per disc): 5 to 9 mm | zone of inhibition at 50 µg/disc ([2]; strain 26, 50 μg per disc): 10 to 19 mm | zone of inhibition at 25 µg/disc ([2]; strain 27, 25 μg per disc): 10 to 19 mm | zone of inhibition at 50 µg/disc ([2]; strain 27, 50 μg per disc): 10 to 19 mm | zone of inhibition at 25 µg/disc ([2]; strain 28, 25 μg per disc): 5 to 9 mm | zone of inhibition at 50 µg/disc ([2]; strain 28, 50 μg per disc): 10 to 19 mm | zone of inhibition at 25 µg/disc ([2]; strain 29, 25 μg per disc): 10 to 19 mm | zone of inhibition at 50 µg/disc ([2]; strain 29, 50 μg per disc): 10 to 19 mm | zone of inhibition at 25 µg/disc ([2]; strain 30, 25 μg per disc): 10 to 19 mm | zone of inhibition at 50 µg/disc ([2]; strain 30, 50 μg per disc): 10 to 19 mm

Cc1nccn1CC1CCc2c(c3ccccc3n2C)C1=O (stereo not shown) [ZFN, ondansetron hydrochloride]
Effect on formation of bacterial biofilms on NTC and TC plates [1]: reduced bacterial adhesion of the 6 strains to the NTC plates; also recorded: only slight activity (p<0.1) against strain 4 on the TC plates; also recorded: marked reduction of biofilm growth for most on NTC but not on TC | Prevention of formation of biofilm [1]: 2 | Prevention of settlement of Bugula larvae (Bugula neritina larvae): 8 | Antibiotic activity against marine bacteria ([2]; 25 or 50 μg per disc, in words): did not have any appreciable antibiotic activity against marine bacteria | Antibiotic activity against marine bacteria [2, 3]: 8
